Test results published in US20050245550A1, “Fungicidal mixtures based on the dithianon” (priority 2002, published 2005).

Legend:
Botrytis cinerea = assay: Activity against gray mold on bell pepper leaves caused by Botrytis cinerea; assay type: in vivo; details: individual active compound
Procedure: (§1) The active compounds were prepared separately or jointly as a stock solution comprising 0.25% by weight of active compound in acetone or DMSO. 1% by weight of the emulsifier Uniperol® EL (wetting agent having emulsifying and dispersing action based on ethoxylated alkylphenols) was added to this solution, and the mixture was diluted with water to the desired concentration.
Bell pepper seedlings of the cultivar “Neusiedler Ideal Elite” were, after 4-5 leaves were well developed, sprayed to runoff point with an aqueous suspension having the concentration of active compound stated below. The next day, the treated plants were inoculated with a spore suspension of Botrytis cinerea which contained 1.7×10^6 spores/ml in a 2% strength aqueous biomalt solution. The test plants were then placed in a climatized chamber at 22-24° C. and high atmospheric humidity. After 5 days, the extent of the fungal infection on the leaves could be determined visually in %.
(§2) Evaluation was carried out by determining the infected leaf areas in percent. These percentages are converted into efficacies.
(§3) The efficacy (E) is calculated as follows using Abbot's formula: E=(1−α/β)·100 α corresponds to the fungal infection of the treated plants in % and • β corresponds to the fungal infection of the untreated (control) plants in %
(§4) An efficacy of 0 means that the infection level of the treated plants corresponds to that of the untreated control plants; an efficacy of 100 means that the treated plants were not infected.
(§5) The expected efficacies of the active compound mixtures are determined using Colby's formula [S. R. Colby, Weeds 15, 20-22 (1967)] and compared with the observed efficacies.
(§6) Colby's formula: E=x+y−x·y/100 • E expected efficacy, expressed in % of the untreated control, when using the mixture of the active compounds A and B at the concentrations a and b • x efficacy, expressed in % of the untreated control, when using active compound A at a concentration of a
(§7) y efficacy, expressed in % of the untreated control, when using active compound B at a concentration of b

Alternaria solani = assay: Activity against early blight of tomato caused by Alternaria solani; assay type: in vivo; details: individual active compound, 5 days after infection
Procedure: as §1, §2, §3, §4, §5, §6, §7
Leaves of potted plants of the cultivar “Groβe Fleischtomate St. Pierre” were sprayed to runoff point with an aqueous suspension having the concentration of active compounds stated below. The next day, the leaves were infected with an aqueous zoospore suspension of Alternaria solani in 2% biomalt solution having a density of 0.17×10^6 spores/ml. The plants were then placed in a water-vapor-saturated chamber at temperatures of between 20 and 22° C. After 5 days, the infection on the leaves of the untreated, but infected control plants had developed to such an extent that the infection could be determined visually in %.

[1] = concentration in the spray liquor 0.25, 5 days after inoculation
[2] = concentration in the spray liquor 1, 5 days after inoculation
[3] = concentration in the spray liquor 4, 5 days after inoculation

Compound	Efficacy in % of the untreated control (Botrytis cinerea; [1]) [%]	Efficacy in % of the untreated control (Botrytis cinerea; [2]) [%]	Efficacy in % of the untreated control (Botrytis cinerea; [3]) [%]	Efficacy in % of the untreated control (Alternaria solani; 0.25 ppm in the spray liquor) [%]	Efficacy in % of the untreated control (Alternaria solani; 1 ppm in the spray liquor) [%]	Efficacy in % of the untreated control (Botrytis cinerea; concentration in the spray liquor 16, 5 days after inoculation) [%]	Efficacy in % of the untreated control (Alternaria solani; 4 ppm in the spray liquor) [%]
CC(C)(C)C(O)(CCc1ccc(Cl)cc1)Cn1cncn1 (centres unmarked) [II-4, tebuconazole]	0	0	0	0	63		
CC1(C)CCC(Cc2ccc(Cl)cc2)C1(O)Cn1cncn1 (centres unmarked) [II-1, metconazole]	0	49		2	63		
Fc1ccc(C2(Cn3cncn3)OC2c2ccccc2Cl)cc1 (centres unmarked) [II-2, epoxiconazole]	9	9		63	75		
N#Cc1sc2c(=O)c3ccccc3c(=O)c=2sc1C#N [I, dithianon]	0	0	0	0	0	0	0
